Assay results taken from patent US20090012085A1, “DOSAGE FORMS AND METHODS OF TREATMENT USING A TYROSINE KINASE INHIBITOR” (priority 2005, published 2009).
Read-outs that look alike come from different tables or passages of the source.

Assay: Phase I dose-escalating study, plasma pharmacokinetics in patients with solid tumor
Format: in vivo, human
Details: human, plasma; for concentration at 3 h: nominal time 3 h; for concentration at 6 h: nominal time 6 h; for concentration at 8 h: nominal time 8 h; for concentration at 10 h: nominal time 10 h; for concentration at 4 h: nominal time 4 h; for concentration at 0 h: nominal time 0 h; for concentration at 1 h: nominal time 1 h; for concentration at 2 h: nominal time 2 h; for concentration at 20 h: nominal time 20 h; for concentration at 48 h: nominal time 48 h; for concentration at 72 h: nominal time 72 h; for concentration at 96 h: nominal time 96 h; for concentration at 144 h: nominal time 144 h; for AUC(0-t): read-out: AUC(0-24), mean (% CV); for Cmax: read-out: Cmax, mean (% CV); for Tmax: read-out: tmax, mean (% CV); for half-life: read-out: t½, mean (% CV) (converted)
Protocol: Cmax values, or maximum total plasma concentrations, of a compound of formula 1 can be measured according to techniques well known to those skilled in the art. For example, after a compound of formula 1 has been administered to a mammal, blood samples can be taken at fixed time points over a period of time (e.g. 24 hours) and the serum or plasma concentration of compound of formula 1 can be measured using standard analytical techniques known in the art. In vivo determinations Cmax can then be made by plotting the serum or plasma concentration of compound of formula 1 along the ordinate (y-axis) against time along the abscissa (x-axis).
The maleate salt of compound 1 was administered to human patients with solid tumor malignancies not amenable to conventional therapies in a Phase I dose-escalating multicenter study. The types of tumor malignancies included colorectal carcinoma, renal cell carcinoma, esophageal carcinoma, thymus carcinoma, mastocytosis, lung cancer and multiple endocrine neoplasia type II. Patients were treated in cohorts of 6 with escalating QD (once per day) doses of the maleate salt of compound 1 under fasting conditions. Each study cycle of 5 weeks consisted of 4 weeks of treatment followed by 1 week of rest (4/1 schedule), or continuous dosing without any rest period.
Full pharmacokinetic profiles were collected on Cycle 1 Day 1 (C1D1), Cycle 1 Day 28 (C1D28), and Cycle 2 Day 28 (C2D28). Preliminary pharmacokinetic parameters for the first 44 patients, i.e. the first 7 dosing groups, were estimated using nominal collection times and quality-controlled, non-quality assured bioanalytical data. The dosage amounts in Table 1A and Table 1B are free base equivalent amounts.

[1] = 150 mg QD, 150 mg QD 4/1 (n = 5), read-out: Mean plasma concentration following the last dose on cycle 1 day 28
[2] = 150 mg QD, 150 mg QD Continuous (n = 6), read-out: Mean plasma concentration following the last dose on cycle 1 day 28
[3] = 150 mg, 150 mg QD 4/1 (n = 5), read-out: Mean plasma concentration following the last dose on cycle 1 day 28
[4] = 150 mg, 150 mg QD (4/1), C1D1 (n = 7)
[5] = 150 mg, 150 mg QD (4/1), C1D28 (n = 5)
[6] = 150 mg, 150 mg QD (4/1), C2D28 (n = 4)
[7] = 150 mg, 150 mg QD Continuous (n = 6), read-out: Mean plasma concentration following the last dose on cycle 1 day 28
[8] = 200 mg QD, 200 mg QD 4/1 (n = 5), read-out: Mean plasma concentration following the last dose on cycle 1 day 28
[9] = 200 mg, 200 mg QD 4/1 (n = 5), read-out: Mean plasma concentration following the last dose on cycle 1 day 28
[10] = 200 mg, 200 mg QD (4/1), C1D1 (n = 6)

Cc1[nH]c(/C=C2\C(=O)Nc3ccc(F)cc32)c(C)c1C(=O)NC[C@H](O)CN1CCOCC1 [compound 1, 5-[(Z)-(5-fluoro-2-oxo-1,2-dihydro-3H-indol-3-ylidene)methyl]-N-[(2S)-2-hydroxy-3-morpholin-4-ylpropyl]-2,4-dimethyl-1H-pyrrole-3-carboxamide]
concentration at 3 h [1]: 268 ng/mL
concentration at 6 h [1]: 161 ng/mL
concentration at 8 h [1]: 142 ng/mL
concentration at 10 h [1]: 132 ng/mL
concentration at 3 h [2]: 407 ng/mL
concentration at 4 h [2]: 519 ng/mL
concentration at 6 h [2]: 471 ng/mL
concentration at 8 h [2]: 404 ng/mL
concentration at 10 h [2]: 345 ng/mL
concentration at 0 h [3]: 99.8 ng/mL
concentration at 1 h [3]: 184 ng/mL
concentration at 2 h [3]: 252 ng/mL
concentration at 4 h [3]: 231 ng/mL
concentration at 20 h [3]: 42.9 ng/mL
concentration at 24 h (150 mg, 150 mg QD 4/1 (n = 5), nominal time 24 h, read-out: Mean plasma concentration following the last dose on cycle 1 day 28): 94.8 ng/mL
concentration at 48 h [3]: 31.2 ng/mL
concentration at 72 h [3]: 9.08 ng/mL
concentration at 96 h [3]: 4.17 ng/mL
concentration at 144 h [3]: 1.52 ng/mL
AUC(0-t) [4]: 3370 ng·h/mL
concentration at 24 h (150 mg, 150 mg QD (4/1), C1D1 (n = 7), read-out: C(trough, 24 h), mean (% CV)): 81.7 ng/mL
Cmax [4]: 421 ng/mL
Tmax [4]: 1.6 h
half-life [4]: 13.6 h
AUC(0-t) [5]: 2960 ng·h/mL
concentration at 24 h (150 mg, 150 mg QD (4/1), C1D28 (n = 5), read-out: C(trough, 24 h), mean (% CV)): 75.8 ng/mL
Cmax [5]: 299 ng/mL
Tmax [5]: 1.8 h
half-life [5]: 19.3 h
AUC(0-t) [6]: 3090 ng·h/mL
concentration at 24 h (150 mg, 150 mg QD (4/1), C2D28 (n = 4), read-out: C(trough, 24 h), mean (% CV)): 54.6 ng/mL
Cmax [6]: 269 ng/mL
Tmax [6]: 3 h
half-life [6]: 13.2 h
concentration at 0 h [7]: 124 ng/mL
concentration at 1 h [7]: 244 ng/mL
concentration at 2 h [7]: 453 ng/mL
concentration at 20 h [7]: 104 ng/mL
concentration at 24 h (150 mg, 150 mg QD Continuous (n = 6), nominal time 24 h, read-out: Mean plasma concentration following the last dose on cycle 1 day 28): 271 ng/mL
concentration at 3 h [8]: 396 ng/mL
concentration at 4 h [8]: 441 ng/mL
concentration at 6 h [8]: 463 ng/mL
concentration at 8 h [8]: 349 ng/mL
concentration at 10 h [8]: 361 ng/mL
concentration at 0 h [9]: 353 ng/mL
concentration at 1 h [9]: 408 ng/mL
concentration at 2 h [9]: 408 ng/mL
concentration at 20 h [9]: 189 ng/mL
concentration at 24 h (200 mg, 200 mg QD 4/1 (n = 5), nominal time 24 h, read-out: Mean plasma concentration following the last dose on cycle 1 day 28): 259 ng/mL
concentration at 48 h [9]: 87.6 ng/mL
concentration at 72 h [9]: 31.4 ng/mL
concentration at 96 h [9]: 13 ng/mL
concentration at 144 h [9]: 4.77 ng/mL
AUC(0-t) [10]: 3440 ng·h/mL
concentration at 24 h (200 mg, 200 mg QD (4/1), C1D1 (n = 6), read-out: C(trough, 24 h), mean (% CV)): 147 ng/mL
Cmax [10]: 262 ng/mL
Tmax [10]: 8.7 h
